This assay deals with T1, ROCKII (Homo sapiens, UniProt O75116).
T1 construct: gene ROCK2; ROCKII(5–554), constitutively active recombinant
The experiment in a line: […]-phosphoryl transfer kinase assay with LC20 peptide; steady-state kinetics. The format is biochemical.

T1 sequence (O75116 5-554): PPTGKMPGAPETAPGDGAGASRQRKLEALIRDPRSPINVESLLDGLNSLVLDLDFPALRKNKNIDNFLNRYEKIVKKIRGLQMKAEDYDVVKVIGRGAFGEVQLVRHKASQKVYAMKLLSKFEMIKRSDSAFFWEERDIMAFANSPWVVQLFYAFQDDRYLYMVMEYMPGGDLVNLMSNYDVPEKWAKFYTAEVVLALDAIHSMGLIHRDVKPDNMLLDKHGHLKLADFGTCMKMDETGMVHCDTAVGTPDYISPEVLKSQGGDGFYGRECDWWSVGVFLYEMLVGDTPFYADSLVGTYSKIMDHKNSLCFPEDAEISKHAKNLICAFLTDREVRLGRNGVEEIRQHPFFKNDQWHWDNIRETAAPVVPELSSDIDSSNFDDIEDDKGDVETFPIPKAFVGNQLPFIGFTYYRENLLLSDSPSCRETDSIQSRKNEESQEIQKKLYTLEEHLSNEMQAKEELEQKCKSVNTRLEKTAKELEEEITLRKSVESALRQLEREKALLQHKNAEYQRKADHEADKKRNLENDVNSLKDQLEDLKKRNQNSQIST

`O=C1OC(c2ccc(Cl)c([N+](=O)[O-])c2)=N/C1=C\c1cccnc1` [DI, (4Z)-2-(4-chloro-3-nitrophenyl)-4-(pyridin-3-ylmethylidene)-1,3-oxazol-5-one] displayed a Ki of 132 nM.

The values above are taken from publication PMC5004178, “A novel inhibitory effect of oxazol-5-one compounds on ROCKII signaling in human coronary artery vascular smooth muscle cells” (Scientific Reports, 2016).
